The nature of series [1]: Emission in blood (whole porcine blood in buffer). The protocol:
Compound 15d (Table 1) was diluted to 40 μM in 50% DMSO:50% 25 mM pH 9 phosphate buffer. […] Emission remained stable for at least 1 hr. The absorption profile matches the output of a laser pointer (635-670 nm; max output <5 mW).
Its absorbance and fluorescence spectra faded over time, but remained visible after about an hour (although with only 10-20% of its original emission intensity). Molecular modeling has shown favorable structural interactions of compounds 5f and 24 with glutathione (FIG. 12—compound 24).
Spectral behavior of compound 15g (type [c] annulated seminaphtho-rhodamine methyl ester (free amine) with the 3-1 transposition) was investigated to determine its potential for sensing use in whole blood. Solutions of compound 15g in 10% or 90% by volume whole blood (porcine blood in Na-EDTA, Lampire Biological Laboratories) were investigated in a 3×3 mm cell. The fluorophore was first dissolved in 50 mM, pH 7.4 phosphate buffer to ensure complete dissolution, and in the case of 90% whole blood, this stock solution was mixed with whole blood in a 1:9 ratio. In the case of 10% whole blood, 1 part whole blood was added to 9 parts of an appropriately diluted (with deionized water) solution of compound 15g stock. In both cases, the final concentration of compound 15g was 150 μM with a final phosphate buffer concentration of 5 mM. […] Throughout much of the spectrum, the dye produces a greater absorbance than the blood alone. The change in absorbance between the two spectra provides the effective absorbance of the dye. […] The broad absorption and large Stokes shift of this dye allows significant excitation with greater than 50% efficiency at wavelengths beyond that of the major hemoglobin peaks in blood.

Series [2] can be described thus: UV-visible absorbance spectroscopy, 15 μM in 90% aqueous, 10% DMSO. It is filed as physicochemical. The following applies: for Red shift of absorption spectra from 3-1 transposition versus known regiochemistry: depending on the ionization state. The procedure: Compounds 21 and 7 were characterized by UV-visible spectroscopy (FIG. 15). Absorbance was measured using 15 μM solutions of each compound in a solution that was 90% aqueous, 10% DMSO. The peaks at 600 nm (light dashed line) and 675 nm (light solid line) represent the dianions of compounds 21 and 7, respectively, in NaOH (pH 12). The peaks at 590 nm (heavy dashed line) and 650 nm (heavy solid line) represent a mix of mono- and dianions of compound 21 at pH 7.4 and predominantly monoanions of compound 7 at pH 9, respectively.
Compounds 22 and 8 were characterized by UV-visible spectroscopy (FIG. 16). Absorbance was measured using 15 μM solutions of each compound in a solution that was 90% aqueous, 10% DMSO. The peaks at 610 nm (light dashed line) and 685 nm (light solid line) represent the anions of compounds 22 and 8, respectively, in NaOH (pH 12). The peaks at 605 nm (heavy dashed line) and 805 nm (heavy solid line) represent the neutral forms of compounds 22 and 8 at pH 7.4, respectively.
Compounds 20a and 15a were characterized by UV-visible spectroscopy (FIG. 17). Absorbance was measured using 15 μM solutions of each compound in a solution that was 90% aqueous, 10% DMSO. The peaks at 545 nm (light dashed line) and 595 nm (light solid line) represent the respective anions, compounds 20c and 15h, in NaOH (pH 12).
Compound 15b (free amino) was characterized by UV-visible spectroscopy (FIG. 18), and compared to C.SNARF-5 (literature, SNARF=seminaphthorhodafluor). Absorbance was measured using a 15 μM solution of compound 15b in a solution that was 90% aqueous, 10% DMSO. The peak at 535 nm (heavy line) represents the predominantly phenolic form of 15b at pH 6. The peak at 615 nm (light line) represents the phenoxide of compound 15b at in NaOH (pH12). In comparison, C.SNARF-5 produces a peak at 550 nm (anionic form) and a peak at 485 nm (neutral form) (Whitaker et al., Anal. Biochem. 1991, 194, 330-344).
Absorbance was measured using 15 μM solutions of compound 15d in a solution that was 90% aqueous, 10% DMSO. The peak at 570 nm (heavy line) represents the predominantly neutral form of 15d at pH 6. The peak at 630 nm (light line) represents the phenoxide of compound 15d in NaOH (pH 12).
Compounds 20b and 15g were characterized by UV-visible spectroscopy (FIG. 20). Absorbance was measured using 15 μM solutions of each compound in a solution that was 90% aqueous, 10% DMSO. The peaks at 540 nm (dashed line) and 570 nm (solid line) represent the cations of compounds 20b and 15g, respectively, at pH 7.4.

Series [3] in a line: Fluorescence emission spectra, 15 μM in 90% aqueous, 10% DMSO. The following applies: for Red-shifted emission from 3-1 transposition versus known regiochemistry: longest wavelength-emitting species. It is filed as physicochemical. The protocol: Compounds 21 and 7 also were characterized by their fluorescence emission spectra. Fluorescence was measured using 15 μM solutions of each compound in a solution that was 90% aqueous, 10% DMSO. For compound 21, the longest wavelength emission observed from the dianions occurred near 680 nm at pH 9. For compound 7 (transposed), the longest wavelength emission observed from the monoanion occurred near 800 nm at pH 9.
Compounds 22 and 8 also were characterized by their fluorescence emission spectra. Fluorescence was measured using 15 μM solutions of each compound in a solution that was 90% aqueous, 10% DMSO For compound 22, the longest wavelength emission observed from the anion occurred near 690 nm at pH 9. […] Given the greater than 800 nm absorbance peak and the typically large Stokes shifts observed in this class of compounds, it is likely that the emission was beyond the working range of the instrument (>850 nm).
Compounds 20 and 15a also were characterized by their fluorescence emission spectra. Fluorescence was measured using 15 μM solutions of each compound in a solution that was 90% aqueous, 10% DMSO. For compound 20a, the longest wavelength emission observed from its corresponding anion, compound 20c, occurred near 640 nm in NaOH (pH 12). For compound 15a (transposed), the longest wavelength emission observed from the corresponding anion, compound 15h, occurred near 760 nm in NaOH.
Compound 15b also was characterized by its fluorescence emission spectrum and compared to C.SNARF-5. Fluorescence was measured using a 15 μM solution of compound 15b in a solution that was 90% aqueous, 10% DMSO. For C.SNARF-5, the longest wavelength emission observed from the anion occurred near 632 nm (Whitaker et al., Anal. Biochem. 1991, 194, 330-344). For compound 15b (transposed), the longest wavelength emission observed from the phenoxide occurred near 770 nm.
Fluorescence was measured using a 15 μM solution of compound 15d in a solution that was 90% aqueous, 10% DMSO. […] For compound 15d (transposed), the longest wavelength emission observed from the phenoxide occurred near 780 nm (NaOH, pH 12).
Compounds 20b and 15g also were characterized by their fluorescence emission spectra. Fluorescence was measured using 15 μM solutions of each compound in a solution that was 90% aqueous, 10% DMSO. For compound 20b, the longest wavelength emission observed from the cation occurred near 640 nm at pH 7.4. For compound 15g (transposed), the longest wavelength emission observed from the cation occurred near 770 nm at pH 7.4.

A short description of series [4]: Effect of pH / ionization on spectra. It is filed as physicochemical. The text has this: There are through-space polar interactions between R^18 and the internal bridge oxygen in compounds according to general formulas III, IX, and X. The field effect is further enhanced in the case of symmetric compounds, such as those according to general formula IV when R^19 is oxygen. A unique intramolecular hydrogen-bonding network also is present in such compounds, e.g., compound 8 (FIG. 25). This network produces enhanced negative charge density on the ionizable oxygen atoms, thereby promoting a relatively large bathochromic shift. […] The hydrogen bonding can be seen in compounds such as compound 8 by ^1H NMR spectroscopy. A redistribution of the electronic density around the hydrogen atom occurs upon hydrogen bond formation between the hydroxyl proton, the carbonyl, and the central oxygen of compound 8. […] Evidence of hydrogen bonding was also seen in compound 15a, but to a lesser degree. In compound 15a, the total hydrogen bond distance O—H—O between the hydroxyl at the R^18 position and the xanthene central oxygen is 2.95 Å, which falls in range of common hydrogen bonds.
Known seminaphthorhodafluors display long wavelength absorption at high pH; however, the free amino compound in this series respond to low pH with increased long wavelength absorption.

Series [5] is described as follows: Absorbance and fluorescence in methanol. It is filed as physicochemical. The protocol: Absorbance and fluorescence of compounds 22 and 8 also were measured in methanol. […] Thus, placement of the hydroxyl group proximal to the xanthene internal oxygen in compound 8 produced a bathochromic shift of 103 nm in the absorption spectrum. The transposition also imparted a corresponding shift in the excitation spectrum, and a large bathochromic shift of 128 nm in the fluorescence emission. Importantly, compound 8 absorbs and emits in the near-infrared with absorption and emission maxima of 701 nm and 816 nm, respectively.
Absorbance and fluorescence of compounds 20a and 15a also were measured in methanol. […] Thus, placement of the hydroxyl group proximal to the xanthene internal oxygen in compound 15a produced a bathochromic shift of 15 nm in the absorbance spectrum. The transposition also imparted a corresponding shift in the excitation spectrum, and a large bathochromic shift of 32 nm in the fluorescence emission.

Where [6] appears, read: NaOH (pH 12), anionic/phenoxide form, 90% aqueous 10% DMSO.
Setting [7] is: 40 μM in 50% DMSO:50% 25 mM pH 9 phosphate buffer.

The structures appear in SMILES notation.

Turning to `COC(=O)c1ccccc1-c1c2ccc(=N)cc-2oc2c1ccc1cccc(N)c12` [Compound 15g], the Emission spectrum maximum result in series [1] (150 μM, 10% and 90% whole blood, excitation at 670 nm) is reported as “about 750 nm”. Also, the “Red shift of absorption spectra from 3-1 transposition versus known regiochemistry” value (from here on “Red shift of absorption spectra”) in series [2] (90% aqueous 10% DMSO) was “about 30 nm”. This compound registered an Absorbance peak in series [2] (pH 7.4, 90% aqueous 10% DMSO) of 570 nm. Further, in series [3], the “Enhancement of the Stokes shift by 3-1 transposition” value is “about 100 nm”, the Stokes shift entry is on record as “about 200 nm” and the “Red-shifted emission from 3-1 transposition versus known regiochemistry” value (from here on “Red-shifted emission”) was “about 130 nm”. In series [3] (pH 7.4, cation), this compound returned a Longest wavelength emission of around 770 nm.

Take `Cc1ccc(C)c(-c2c3ccc4cccc(O)c4c3oc3c2ccc2cccc(=O)c23)c1` [Compound 10, 7-(2,5-dimethylphenyl)-13-hydroxy-1H-dibenzo[c,h]xanthen-1-one]: in series [4], the “Shift of the absorption maximum on deprotonation” value was “hypsochromic”.

For the compound `O=C1OC2(c3ccccc31)c1ccc3cccc(O)c3c1Oc1c2ccc2cccc(O)c12` [Compound 7], the “Form below physiological pH of 7.4” value in series [4] (1:9 DMSO:buffer) is recorded as “colorless lactone”. For the same compound, in series [2] (90% aqueous 10% DMSO), the “Red shift of absorption spectra” value is 60-75 nm. The Absorbance peak is recorded as 675 nm in series [2] (setting [6]) and 650 nm in series [2] (pH 9, predominantly monoanions). Moreover, in series [3], the Stokes shift result is on record as “about 150 nm”. Also, the Longest wavelength emission entry is given as “too weak to be detected or, more likely, beyond the working range of the instrument” in series [3] (NaOH (pH 12), anion/phenoxide) and around 800 nm in series [3] (pH 9). Moreover, in series [3], the “Red-shifted emission” value is “about 120 nm”.

Consider `COC(=O)c1ccccc1-c1c2ccc3cccc(O)c3c2oc2c1ccc1cccc(=O)c12` [Compound 8], for which, in series [4], the “Shift of the absorption maximum on deprotonation” value is given as “does not result in a large bathochromic shift” and the “pH up to which NIR fluorescence was observed” value was at most 9. The “Red shift of absorption spectra” value in series [2] (90% aqueous 10% DMSO) is given as 75-200 nm. The compound further returned an Absorbance peak in series [2] (setting [6]) of 685 nm. In series [3], the Stokes shift result was “unmeasurable” and the “Red-shifted emission” value is “more than 160 nm”. Also, the Longest wavelength emission entry in series [3] (pH not stated) is “emission was not observed”. Further, in series [5], the Absorption maximum worked out at 701 nm, the “Bathochromic shift in the absorption spectrum versus known regiochemistry” value came out at 103 nm, the “Bathochromic shift in the fluorescence emission versus known regiochemistry” value amounted to 128 nm and the Emission maximum stood at 816 nm.

Take `COC(=O)c1ccccc1-c1c2ccc(=[N+](C)C)cc-2oc2c1ccc1cccc(O)c12` [Compound 15d]: in series [1] (setting [7]), the λmax em is around 790 nm and the λmax ex was around 690 nm. In addition, the “Time emission remained stable” value in series [1] (5% whole blood) is “at least 1 hr”. Also, the “Loss of fluorescence on inclusion of whole blood” value in series [1] (final blood concentration 5% by volume) is listed as “only minimal loss of fluorescence”. For the same compound, in series [2] (90% aqueous 10% DMSO), the “Red shift of absorption spectra” value is reported as 55-57 nm. Besides, the Absorbance peak in series [2] (setting [6]) is 630 nm. In series [2] (pH 6, predominantly neutral/phenolic form), the Absorbance peak is listed as 570 nm. Moreover, in series [3], the “Enhancement of the Stokes shift by 3-1 transposition” value is given as “about 92 nm”, the Stokes shift entry is “about 150 nm” and the “Red-shifted emission” value is “about 149 nm”. In series [3] (NaOH (pH 12), anion/phenoxide), this compound had a Longest wavelength emission of around 780 nm.

Take `COC(=O)c1ccccc1-c1c2ccc(=O)cc-2oc2c1ccc1cccc(N)c12` [Compound 15e]: in series [4], the “Response of absorption to pH (pH titration)” value was “increased long wavelength absorption and decreased short wavelength absorption at low pH”.

The record behind these values is patent US9958451B2, “Near-infrared fluorescent dyes with large stokes shifts” (Portland State University, priority 2011, dated 2018).
